Measurements: PubChem BioAssay AID1259407 (Chemical Carcinogenesis Research Information System (CCRIS), 2018)
Active and inactive are the calls of the source. How the calls were made is not given here.

Tested on: CCRIS mutagenicity, Ames/micronucleus/aberration tests
Experiment: CCRIS mutagenicity studies
[1] = Test System: AMES SALMONELLA TYPHIMURIUM, Strain/Indicator: TA98, Metabolic Activation: HAMSTER, LIVER, S-9, AROCLOR 1254, Method: PREINCUBATION
[2] = Test System: AMES SALMONELLA TYPHIMURIUM, Strain/Indicator: TA98, Metabolic Activation: NONE, Method: PREINCUBATION
[3] = Test System: AMES SALMONELLA TYPHIMURIUM, Strain/Indicator: TA98, Metabolic Activation: NONE, Method: STANDARD PLATE
[4] = Test System: AMES SALMONELLA TYPHIMURIUM, Strain/Indicator: TA98, Metabolic Activation: RAT, LIVER, S-9, AROCLOR 1254, Method: PREINCUBATION
[5] = Test System: AMES SALMONELLA TYPHIMURIUM, Strain/Indicator: TA98, Metabolic Activation: RAT, LIVER, S-9, AROCLOR 1254, Method: STANDARD PLATE
[6] = Test System: AMES SALMONELLA TYPHIMURIUM, Strain/Indicator: TA100, Metabolic Activation: HAMSTER, LIVER, S-9, AROCLOR 1254, Method: PREINCUBATION
[7] = Test System: AMES SALMONELLA TYPHIMURIUM, Strain/Indicator: TA100, Metabolic Activation: NONE, Method: PREINCUBATION
[8] = Test System: AMES SALMONELLA TYPHIMURIUM, Strain/Indicator: TA100, Metabolic Activation: NONE, Method: STANDARD PLATE
[9] = Test System: AMES SALMONELLA TYPHIMURIUM, Strain/Indicator: TA100, Metabolic Activation: RAT, LIVER, S-9, AROCLOR 1254, Method: PREINCUBATION
[10] = Test System: AMES SALMONELLA TYPHIMURIUM, Strain/Indicator: TA100, Metabolic Activation: RAT, LIVER, S-9, AROCLOR 1254, Method: STANDARD PLATE
[11] = Test System: AMES SALMONELLA TYPHIMURIUM, Strain/Indicator: TA1535, Metabolic Activation: HAMSTER, LIVER, S-9, AROCLOR 1254, Method: PREINCUBATION
[12] = Test System: AMES SALMONELLA TYPHIMURIUM, Strain/Indicator: TA1535, Metabolic Activation: NONE, Method: PREINCUBATION
[13] = Test System: AMES SALMONELLA TYPHIMURIUM, Strain/Indicator: TA1535, Metabolic Activation: RAT, LIVER, S-9, AROCLOR 1254, Method: PREINCUBATION
[14] = Test System: AMES SALMONELLA TYPHIMURIUM, Strain/Indicator: TA1535, Metabolic Activation: RAT, LIVER, S-9, AROCLOR 1254, Method: STANDARD PLATE
[15] = Test System: AMES SALMONELLA TYPHIMURIUM, Strain/Indicator: TA1537, Metabolic Activation: HAMSTER, LIVER, S-9, AROCLOR 1254, Method: PREINCUBATION
[16] = Test System: AMES SALMONELLA TYPHIMURIUM, Strain/Indicator: TA1537, Metabolic Activation: NONE, Method: PREINCUBATION
[17] = Test System: AMES SALMONELLA TYPHIMURIUM, Strain/Indicator: TA1537, Metabolic Activation: RAT, LIVER, S-9, AROCLOR 1254, Method: PREINCUBATION
[18] = Test System: AMES SALMONELLA TYPHIMURIUM, Strain/Indicator: TA100, Metabolic Activation: RAT, LIVER, S-9, PHENOBARBITAL AND 5,6-BENZOFLAVONE, Method: PREINCUBATION

In the case of `Nc1ccc(-c2ccc(N)c(Cl)c2)cc1Cl`, the mutagenic call (Test System: AMES SALMONELLA TYPHIMURIUM, Strain/Indicator: TA98(1,8-DNP6), Metabolic Activation: NONE, Method: STANDARD PLATE) is reported as “active; positive”, the mutagenic call (Test System: AMES SALMONELLA TYPHIMURIUM, Strain/Indicator: TA98(1,8-DNP6), Metabolic Activation: S-9, Method: STANDARD PLATE) is reported as “active; positive” and the mutagenic call (Test System: AMES SALMONELLA TYPHIMURIUM, Strain/Indicator: TA98/1,8-DNP6, Metabolic Activation: HAMSTER, LIVER, S-9, Method: PREINCUBATION) is reported as “active; positive”. The mutagenic call (Test System: AMES SALMONELLA TYPHIMURIUM, Strain/Indicator: TA98/1,8-DNP6, Metabolic Activation: NONE, Method: PREINCUBATION) was “active; positive”, the mutagenic call [1] was “active; positive” and the mutagenic call (Test System: AMES SALMONELLA TYPHIMURIUM, Strain/Indicator: TA98, Metabolic Activation: HAMSTER, LIVER, S-9, Method: PREINCUBATION) was “active; positive”. The mutagenic call (Test System: AMES SALMONELLA TYPHIMURIUM, Strain/Indicator: TA98, Metabolic Activation: MOUSE, LIVER, S-9, Method: STANDARD PLATE) was “active; positive”, the mutagenic call [2] was “active; positive” and the mutagenic call [3] was “active; positive”. The mutagenic call (Test System: AMES SALMONELLA TYPHIMURIUM, Strain/Indicator: TA98, Metabolic Activation: RAT LIVER S-9, AROCLOR 1254, Method: PREINCUBATION) was “active; positive”, the mutagenic call [4] was “active; positive” and the mutagenic call [5] was “active; positive”. The mutagenic call (Test System: AMES SALMONELLA TYPHIMURIUM, Strain/Indicator: TA98, Metabolic Activation: S-9, Method: STANDARD PLATE) was “active; positive”, the mutagenic call [6] was “active; positive” and the mutagenic call [7] was “inactive; negative”. For the same compound, the mutagenic call [8] was “inactive; negative”, the mutagenic call (Test System: AMES SALMONELLA TYPHIMURIUM, Strain/Indicator: TA100, Metabolic Activation: RAT LIVER S-9, AROCLOR 1254, Method: PREINCUBATION) was “active; positive” and the mutagenic call [9] was “active; positive”. The mutagenic call [10] was “active; positive”, the mutagenic call (Test System: AMES SALMONELLA TYPHIMURIUM, Strain/Indicator: TA100, Metabolic Activation: S-9, Method: STANDARD PLATE) was “active; positive” and the mutagenic call [11] was “inactive; negative”. For the same compound, the mutagenic call [12] was “inactive; negative”, the mutagenic call [13] was “inactive; negative” and the mutagenic call [14] was “active; positive”. The mutagenic call [15] was “active; positive”, the mutagenic call [16] was “inactive; negative” and the mutagenic call [17] was “active; positive”. The mutagenic call (Test System: AMES SALMONELLA TYPHIMURIUM, Strain/Indicator: TA1537, Metabolic Activation: RAT, LIVER, S-9, PHENOBARBITAL, Method: STANDARD PLATE) was “active; positive”, the mutagenic call (Test System: AMES SALMONELLA TYPHIMURIUM, Strain/Indicator: TA1538, Metabolic Activation: HAMSTER, LIVER, S-9, Method: STANDARD PLATE) was “active; positive” and the mutagenic call (Test System: AMES SALMONELLA TYPHIMURIUM, Strain/Indicator: TA1538, Metabolic Activation: NONE, Method: STANDARD PLATE) was “active; positive”. The mutagenic call (Test System: AMES SALMONELLA TYPHIMURIUM, Strain/Indicator: TA1538, Metabolic Activation: RAT, LIVER, S-9, AROCLOR 1254, Method: STANDARD PLATE) was “active; positive”, the mutagenic call (Test System: AMES SALMONELLA TYPHIMURIUM, Strain/Indicator: TA1538, Metabolic Activation: RAT, LIVER, S-9, PHENOBARBITAL, Method: STANDARD PLATE) was “active; positive” and the mutagenic call (Test System: Ames Salmonella typhimurium, Strain/Indicator: TA102, Metabolic Activation: None, Method: Preincubation) was “active; positive”. The mutagenic call (Test System: Ames Salmonella typhimurium, Strain/Indicator: TA102, Metabolic Activation: Rat, liver, S-9, Aroclor 1254, 4%, Method: Preincubation) was “active; positive” and the mutagenic call (Test System: UDS HUMAN FIBROBLASTS, Strain/Indicator: THY INCORP (NON-S-PHASE), Metabolic Activation: NONE, Method: LIQUID SCINTILLATION COUNTING) was “active; positive”.

In the case of `CC1c2ccccc2-c2ccccc21`, the mutagenic call [10] is reported as “active; positive”.

For `CNc1nc2c3cccnc3ccc2n1C`, the mutagenic call [4] was “active; positive” and the mutagenic call [9] was “active; positive”.

In the case of `Cc1ccccc1NS(=O)(=O)c1cccc2cccnc12`, the mutagenic call [3] is reported as “inactive; negative”, the mutagenic call [5] is reported as “inactive; negative” and the mutagenic call [8] is reported as “inactive; negative”. For the same compound, the mutagenic call [10] was “inactive; negative”, the mutagenic call (Test System: AMES SALMONELLA TYPHIMURIUM, Strain/Indicator: TA1535, Metabolic Activation: NONE, Method: STANDARD PLATE) was “inactive; negative” and the mutagenic call [14] was “inactive; negative”. For the same compound, the mutagenic call (Test System: AMES SALMONELLA TYPHIMURIUM, Strain/Indicator: TA1537, Metabolic Activation: NONE, Method: STANDARD PLATE) was “inactive; negative” and the mutagenic call (Test System: AMES SALMONELLA TYPHIMURIUM, Strain/Indicator: TA1537, Metabolic Activation: RAT, LIVER, S-9, AROCLOR 1254, Method: STANDARD PLATE) was “inactive; negative”.

For `OC1c2ccc3nc4c(ccc5ccccc54)cc3c2C2OC2C1O` (stereo unspecified), the mutagenic call (Test System: AMES SALMONELLA TYPHIMURIUM, Strain/Indicator: TA98, Metabolic Activation: RAT, LIVER, AROCLOR 1254, NADPH GENERATING SYSTEM, Method: STANDARD PLATE) was “inactive; negative”, the mutagenic call (Test System: AMES SALMONELLA TYPHIMURIUM, Strain/Indicator: TA100, Metabolic Activation: RAT, LIVER, AROCLOR 1254, NADPH GENERATING SYSTEM, Method: STANDARD PLATE) was “inactive; negative” and the mutagenic call (Test System: CHINESE HAMSTER V-79, Strain/Indicator: V-79/8-AZAGUANINE, Method: STANDARD PLATE) was “inactive; negative”.

With `Clc1ccc2ccccc2n1` the mutagenic call [2] was “inactive; negative”, the mutagenic call (Test System: AMES SALMONELLA TYPHIMURIUM, Strain/Indicator: TA98, Metabolic Activation: RAT, LIVER, S-9, Method: PREINCUBATION) was “inactive; negative” and the mutagenic call [7] was “inactive; negative”. The mutagenic call [18] was “inactive; negative” and the mutagenic call (Test System: AMES SALMONELLA TYPHIMURIUM, Strain/Indicator: TA100, Metabolic Activation: RAT, LIVER, S-9, Method: PREINCUBATION) was “inactive; negative”.

With `Fc1cnc2c(ccc3ncc(F)cc32)c1` the mutagenic call [18] was “inactive; negative”.

For `CC(O)CO` (stereo unspecified), the mutagenic call [1] was “inactive; negative”, the mutagenic call [2] was “inactive; negative” and the mutagenic call [4] was “inactive; negative”. The mutagenic call [6] was “inactive; negative”, the mutagenic call [7] was “inactive; negative” and the mutagenic call [9] was “inactive; negative”. The mutagenic call [11] was “inactive; negative”, the mutagenic call [12] was “inactive; negative” and the mutagenic call [13] was “inactive; negative”. The mutagenic call [15] was “inactive; negative”, the mutagenic call [16] was “inactive; negative” and the mutagenic call [17] was “inactive; negative”.

For `C1=CC2=C3OC3=C3c4ccc5ccccc5c4CC(=C1)C23` (stereo unspecified), the mutagenic call [3] was “active; positive” and the mutagenic call [5] was “active; positive”.

With `CN(C)C(=S)S` the mutagenic call [8] was “active; positive” and the mutagenic call (Test System: AMES SALMONELLA TYPHIMURIUM, Strain/Indicator: TA100, Metabolic Activation: S-9 MIX, Method: STANDARD PLATE) was “inactive; negative”.
